Drawing on patent US6878727B2 (Agouron Pharmaceuticals, Inc., priority 2002, dated 2005), this text covers IC50 and inhibition for 17 compounds.

The target in the test is T1, HCV polymerase (Hepatitis C virus genotype 1b, UniProt P26663).
T1 construct: 2.5 pmoles (0.15 μg) HCV polymerase protein in a final volume of 75 μL
The test is described as follows: HCV Polymerase Inhibition Assay. The test is classed as biochemical. As to conditions: for IC50: recombinant HCV polymerase, primer/template-directed transcription (biotin-dG12/poly(rC)300), 30 minutes at 30° C. How it is done:
HCV Polymerase Inhibition Assay
The above-described compounds were tested for activity with HCV polymerase. Recombinant HCV polymerase was tested for its ability to perform primer/template-directed transcription in assays that contained 30 mM tris-HCl pH 7.2, 10 mM MgCl2, 20 mM NaCl, 1 mM Dithiothreitol (DTT), 0.05% Tween-20, 1% glycerol, 5 pmoles biotin-dG12 (primer), 0.5 pmoles poly(rC)300 (template), 1 μM GTP, 0.1-0.3 uCi α-^32P-GTP, and 2.5 pmoles (0.15 μg) HCV polymerase protein in a final volume of 75 μL. Reactions were initiated by addition of enzyme and incubated 30 minutes at 30° C. Reactions were stopped by addition of 33 mM EDTA, and polynucleotide products were collected by filtration through Diethylaminoethyl (DE) Filtermat papers (Wallac). Unincorporated triphosphate was removed by washing the filters with 5% dibasic sodium phosphate. The filters were counted in a Packard Tri-Lux Microbeta scintillation counter (Packard Bioscience, Meriden, Conn.). Compounds to be tested were added at various concentrations, e.g., 1 μm to 50 μm, from stocks in 10% DMSO-water (final DMSO is 1% in reaction).
IC50 values were estimated from the primary cpm data (collected in triplicate) using the formula: cpm (I)=cpm (no inhibitor)(1−([I]/([I]+IC50))). An IC50 value represents the concentration (in μM) of a compound that provides 50% inhibition of polymerase-directed transcription in the above assay. A percent inhibition value is expressed for a compound where it was impractical to calculate an IC50 value with available data. If the IC50 estimated by the above equation was less than 200 nM, it was recalculated using the following equation, which takes into account the enzyme concentration (30 nM) in the assay: cpm(I)=cpm(no inhibitor)(1−((((I+IC50+30e−9)−sqrt(((I+IC50+30e−9)^2)−4×30e−9×1)))/((2) (30e−9))). Curve fitting was performed using the program KaleidaGraph (Synergy Software, Reading, Pa.).

T1 sequence (P26663 2420-3010): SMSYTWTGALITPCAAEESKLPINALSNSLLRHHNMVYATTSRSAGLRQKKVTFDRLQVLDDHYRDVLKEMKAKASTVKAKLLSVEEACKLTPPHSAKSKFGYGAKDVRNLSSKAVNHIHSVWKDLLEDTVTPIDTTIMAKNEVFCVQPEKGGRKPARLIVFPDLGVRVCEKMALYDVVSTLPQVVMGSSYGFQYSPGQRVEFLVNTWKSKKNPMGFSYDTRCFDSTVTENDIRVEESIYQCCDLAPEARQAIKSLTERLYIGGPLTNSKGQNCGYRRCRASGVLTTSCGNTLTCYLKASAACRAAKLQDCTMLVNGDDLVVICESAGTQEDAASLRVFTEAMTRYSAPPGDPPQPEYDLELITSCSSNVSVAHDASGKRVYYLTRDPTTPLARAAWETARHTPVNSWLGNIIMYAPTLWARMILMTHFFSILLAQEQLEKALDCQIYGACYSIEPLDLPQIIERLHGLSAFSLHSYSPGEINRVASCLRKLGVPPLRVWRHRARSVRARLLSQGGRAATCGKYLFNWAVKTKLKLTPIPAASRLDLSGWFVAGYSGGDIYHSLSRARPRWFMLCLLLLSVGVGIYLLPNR

One may read the IC50 as the concentration that inhibits the measured activity by half. Consider `COc1ccc(C#CC2(C3CCCC3)CC(=O)CC(=O)O2)cc1` (centres unmarked) [Example 1, 6-cyclopentyl-6-[(4-methoxyphenyl)ethynyl]dihydro-2H-pyran-2,4(3H)-dione], for which the IC50 is 12 µM. On the same count and under the same terms, in the case of `O=C1CC(=O)OC(C#Cc2nccs2)(C2CCCC2)C1` (centres unmarked) [Example 2, Cyclopentyl-6-(1,3-thiazol-2-ylethynyl)dihydro-2H-pyran-2,4(3H)-dione] it was 2.1 µM; in that of `CC(C)c1cccc(C#CC2(C3CCCC3)CC(=O)CC(=O)O2)c1` (centres unmarked) [Example 3], 8.5 µM; in that of `COC(=O)Cc1ccc(C#CC2(C3CCCC3)CC(=O)CC(=O)O2)cc1` (centres unmarked) [Example 4], 64.6 µM. The same measure, in the same setting: next, `C#CCCC1(C2CCCC2)CC(=O)CC(=O)O1` (centres unmarked) [Example 5, 6-but-3-ynyl-6-cyclopentyl-dihydro-pyran-2,4-dione]: 74 µM; `O=C1CC(=O)OC(CCC#Cc2ccccc2)(C2CCCC2)C1` (centres unmarked) [Example 6, 6-cyclopentyl-6-(4-phenyl-but-3-ynyl)-dihydro-pyran-2,4-dione]: 8.29 µM; `COc1cccc(C#CCCC2(C3CCCC3)CC(=O)CC(=O)O2)c1` (centres unmarked) [Example 7, 6-Cyclopentyl-6-[4-(3-methoxy-phenyl)-but-3-ynyl]-dihydro-pyran-2,4-dione]: 12.1 µM. On the same count and under the same terms, next, `O=C1CC(=O)OC(CCC#Cc2ccc3scnc3c2)(C2CCCC2)C1` (centres unmarked) [Example 8, 6-(4-Benzothiazol-5-yl-but-3-ynyl)-6-cyclopentyl-dihydro-pyran-2,4-dione]: 4.5 µM; `O=C1CC(=O)OC(CCC#Cc2ccc3c(c2)OCCO3)(C2CCCC2)C1` (centres unmarked) [Example 9, 6-Cyclopentyl-6-[4-(2,3-dihydro-benzo[1,4]dioxin-6-yl)-but-3-ynyl]-dihydro-pyran-2,4-dione]: 11.7 µM; `O=C1CC(=O)OC(CCC#Cc2ccc3c(c2)OCO3)(C2CCCC2)C1` (centres unmarked) [Example 10, 6-(4-Benzo[1,3]dioxol-5-yl-but-3-ynyl)-6-cyclopentyl-dihydro-pyran-2,4-dione]: 10.7 µM. As for `CC(=O)Nc1ccc(C#CCCC2(C3CCCC3)CC(=O)CC(=O)O2)cn1` (centres unmarked) [Example 11, N-{5-[4-(2-Cyclopentyl-4,6-dioxo-tetrahydro-pyran-2-yl)-but-1-ynyl]-pyridin-2-yl}-acetamide], the IC50 turned out to be 67 µM. `COC(=O)Cc1ccc(C#CCCC2(C3CCCC3)CC(=O)CC(=O)O2)cc1` (centres unmarked) [Example 12, {4-[4-(2-cyclopentyl-4,6-dioxo-tetrahydro-pyran-2-yl)-but-1-ynyl]-phenyl}-acetic acid methyl ester]: the IC50 amounted to 10.2 µM. Same read-out and setting: in the case of `O=C1CC(=O)OC(CCC#Cc2cccc(O)c2)(C2CCCC2)C1` (centres unmarked) [Example 13, 6-Cyclopentyl-6-[4-(3-hydroxy-phenyl)-but-3-ynyl]-dihydro-pyran-2,4-dione] it was 4.5 µM; in that of `O=C1CC(=O)OC(CCC#Cc2ccc3ocnc3c2)(C2CCCC2)C1` (centres unmarked) [Example 14, 6-(4-benzooxazol-5-yl-but-3-ynyl)-6-cyclopentyl-dihydro-pyran-2,4-dione], 5.8 µM. A word on the inhibition: it is the change of the read-out against control, counted positive when it falls. Turning to `CCOC1=CC(=O)OC(CCC#Cc2cccc(O)c2)(C2CCCC2)C1` (centres unmarked) [Example 15, 6-cyclopentyl-4-ethoxy-6-[4-(3-hydroxy-phenyl)-but-3-ynyl]-5,6-dihydro-pyran-2-one], where the note is “@ 50 μM compound, given where it was impractical to calculate an IC50”, the inhibition at 50 µM is 27%. Turning to `C#CCCC1(C2CCCC2)CC(=O)C(Sc2ccccc2)C(=O)O1` (centres unmarked) [Example 16, 6-But-3-ynyl-6-cyclopentyl-3-phenylsulfanyl-dihydro-pyran-2,4-dione], the IC50 was found to be 80 µM. Still for that read-out and setting: in the case of `O=C1CC(CCC#Cc2cccc(O)c2)(C2CCCC2)OC(=O)C1Sc1ccccc1` (centres unmarked) [Example 17, 6-Cyclopentyl-6-[4-(3-hydroxy-phenyl)-but-3-ynyl]-3-phenylsulfanyl-dihydro-pyran-2,4-dione] it was 7.6 µM.
